“Also recorded” adds a separate entry of the source.
Key:
[1] = tested on: primary colon cancer cells; test: Colon cancer sphere assay, primary colon cancer cells; type: cell-based, human; conditions: in the presence of IL-22, inhibitor 10 uM
Method: (A, B) IL-22 is expressed by immune cells in colon cancer tissues. Different cell populations were sorted from colon cancer tissues and IL-22 expression was measured by real time PCR. (5-10 donors, P<0.05). (C) IL-22 is spontaneously released by different immune cell populations in colon cancer tissues. Different CD45^+ immune subsets (10^6/ml) were sorted from colon cancer and blood, and cultured for 12 hours. IL-22 was detected via ELISA. (n=5, *P<0.05). (D, E) IL-22 is expressed by activated CD4^+ T cells in colon cancer tissues. CD45^+ subsets (10^6/ml) were sorted from colon cancer and blood, and were activated with anti-CD3 and anti-CD28 for 2 days. IL-22 was detected with ELISA (D) or intracellular staining (E). (n=5, *P<0.05). […] IL-22 mRNA was detected by real time PCR (F) and protein by ELISA (G). […] IL-22 expression was quantified with real-time PCR in the migrated and non-migrated cells. Results are expressed as the mean relative expression (H). The phenotype of migrated cells, non-migrated cells and control (before migration) was analyzed by FACS (I). […] The mRNA of stem cell core genes was detected by real-time PCR after 6 hours (K) and ALDH activity was detected by FACS after 48 hours (L). […]
(A) IL-22 induces H3K79me2 in colon cancer cells. […] Total histone modifications were analyzed by western blot. […] Sphere numbers were recorded. […] DOT1L complex gene expression was quantified by real-time PCR. […]

[2] = tested on: STAT3; test: STAT phosphorylation by western blotting; type: cell-based, human; conditions: colon cancer cells treated with IL-22
Method: (A) IL-22 induced STAT3 phosphorylation. Colon cancer cells were treated with IL-22 for different time points. The protein levels of phosphorylated STAT3 and STAT3 were detected by Western blotting. (B, C) IL-22 induced colon cancer spheres via STAT3. Sphere assay was performed with shSTAT3 colon cancer cells in the presence of IL-22. Results were shown as sphere images (b) and the mean numbers of spheres in triplicate (c). (n=5. P<0.01). (D-F) IL-22 stimulated colon cancer sternness gene expression via STAT3. Colon cancer cells expressing shSTAT3 or scrambled vector were cultured with IL-22. Stem cell core gene mRNAs were detected by real-time PCR after 6 hours (n=5, *P<0.05). (G, H) IL-22 causes STAT3 occupancy on SOX2 promoter areas. STAT3-ChIP assay was performed in DLD-1 cells cultured with or without IL-22. One of at least three experiments is shown.
A. The protein level of phosphorylated STAT3, STAT1 and STATS were activated by IL-22. B. The effect of STAT3 knock down. C. The effect of IL-22 on cell proliferation was analyzed using H^3 Thymidine Incorporation in Stat3 knock down cells. D. Knock down of STAT3 reduced the expression of EZH2 and SUZ12. E. Based on the ENCODE STAT3-ChIP-Seq data base, STAT3 occupancy on the promoter areas of SUZ12 and EED is shown. F. SUZ12/EED DNA was detected by ChIP assay using an antibody against STAT3, c-fos was used as a positive control. […]

Compound | sphere formation induced by IL-22 [1] | STAT3 activation (phosphorylation) [2]
CC(C)N(CCCNC(=O)Nc1ccc(C(C)(C)C)cc1)C[C@H]1O[C@@H](n2ccc3c(N)ncnc32)[C@H](O)[C@@H]1O [EPZ004777] | suppressed | 
IL-22: recombinant IL-22 (R&D systems), cytokine interleukin-22 |  | activated; also recorded: activated STAT3 strongly
